Tests used:
α2AAR = target: T1, α2AAR (Homo sapiens, UniProt P08913); test: α2AAR binding assay ([3H]-RX 821002 radioligand); conditions: [3H]-RX 821002 0.5 nM, HEK293 membranes; read-out: α2A affinity (Ki)
T1 construct: host or cells: HEK293 (membranes)
T1 sequence (P08913 1-465): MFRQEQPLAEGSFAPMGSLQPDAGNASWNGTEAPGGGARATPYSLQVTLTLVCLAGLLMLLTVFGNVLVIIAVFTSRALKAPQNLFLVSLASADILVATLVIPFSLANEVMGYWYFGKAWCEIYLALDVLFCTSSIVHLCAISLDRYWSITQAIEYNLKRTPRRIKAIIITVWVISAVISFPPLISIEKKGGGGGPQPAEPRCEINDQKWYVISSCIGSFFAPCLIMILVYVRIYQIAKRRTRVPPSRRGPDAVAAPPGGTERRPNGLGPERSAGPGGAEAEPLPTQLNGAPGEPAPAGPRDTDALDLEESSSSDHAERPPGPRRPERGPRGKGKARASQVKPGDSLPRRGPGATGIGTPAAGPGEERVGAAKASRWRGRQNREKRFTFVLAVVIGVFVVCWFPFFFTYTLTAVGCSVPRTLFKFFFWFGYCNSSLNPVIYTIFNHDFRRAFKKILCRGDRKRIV

[1] = target: P-glycoprotein (P-gp, MDR1) (Homo sapiens, UniProt P08183); test: in vitro; conditions: dog, MDCK-MDR1, pH 7.4
Description: MDR1-MDCK II cells (obtained from Piet Borst at the Netherlands Cancer Institute) were seeded onto Polycarbonate membranes (PC) in 96-well insert systems at 3.33×10^5 cells/mL until to 4-7 days for confluent cell monolayer formation.
Selected α2AR agonist from table 3s were diluted with the transport buffer (HBSS with 10.0 mM Hepes, pH7.4) from DMSO stock solution to a concentration of 2 μM (DMSO<1%) and applied to the apical or basolateral side of the cell monolayer. […] Permeation of the test compounds from A to B direction and/or B to A direction was determined in duplicate. Digoxin was tested at 10.0 μM from A to B direction and B to A direction in duplicate. The plate was incubated for 2.5 hours in CO2 incubator at 37.0±1.0° C., with 5.0% CO2 at saturated humidity without shaking. In addition, the efflux ratio of each compound was also determined. Test and reference compounds were quantified by LC/MS/MS analysis based on the peak area ratio of analyte/IS.
After transport assay, lucifer yellow rejection assay was applied to determine the cell monolayer integrity. Buffers were removed from both apical and basolateral chambers, followed by the addition of 75 μL of 100 μM lucifer yellow in transport buffer and 250 μL transport buffer in apical and basolateral chambers, respectively. The plate was incubated for 30 minutes at 37.0° C. with 5.0% CO2 and 95.0% relative humidity without shaking. After 30 minutes incubation, 20 μL of lucifer yellow samples were taken from the apical sides, followed by the addition of 60 μL of transport Buffer. And then 80 μL of lucifer yellow samples were taken from the basolateral sides. The relative fluorescence unit (RFU) of lucifer yellow was measured at 425/528 nm (excitation/emission) with an Envision plate reader.
The apparent permeability coefficient Papp (cm/s) was calculated using the equation: […]
wherein dCr/dt is the cumulative concentration of compound in the receiver chamber as a function of time (μM/s); Vr is the solution volume in the receiver chamber (0.075 mL on the apical side, 0.25 mL on the basolateral side); A is the surface area for the transport, i.e. 0.143 cm2 for the area of the monolayer; and C0 is the initial concentration in the donor chamber (μM).
The efflux ratio was calculated using the equation: […]

[2] = target: T2, α2AAR (α2A-adrenergic receptor) (Homo sapiens, UniProt P08913); test: α2AAR FLIPR assay (agonist activity); type: cell-based; conditions: FLIPR, α2AAR cell line hosted in HEK293 cells; read-out: α2A agonist activity (EC50)
T2 construct: expressed in transfected cells; host or cells: HEK293
T2 sequence (P08913 1-465): T1 sequence (P08913 1-465)
Method in brief: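 HEK293 cells expressing α2AAR loaded with Fluo-4 Direct plus probenecid for 50 min at 37° C and 10 min at room temperature, then treated with serially diluted compounds.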

Sequence of P-glycoprotein (P-gp, MDR1) (P08183 whole entry): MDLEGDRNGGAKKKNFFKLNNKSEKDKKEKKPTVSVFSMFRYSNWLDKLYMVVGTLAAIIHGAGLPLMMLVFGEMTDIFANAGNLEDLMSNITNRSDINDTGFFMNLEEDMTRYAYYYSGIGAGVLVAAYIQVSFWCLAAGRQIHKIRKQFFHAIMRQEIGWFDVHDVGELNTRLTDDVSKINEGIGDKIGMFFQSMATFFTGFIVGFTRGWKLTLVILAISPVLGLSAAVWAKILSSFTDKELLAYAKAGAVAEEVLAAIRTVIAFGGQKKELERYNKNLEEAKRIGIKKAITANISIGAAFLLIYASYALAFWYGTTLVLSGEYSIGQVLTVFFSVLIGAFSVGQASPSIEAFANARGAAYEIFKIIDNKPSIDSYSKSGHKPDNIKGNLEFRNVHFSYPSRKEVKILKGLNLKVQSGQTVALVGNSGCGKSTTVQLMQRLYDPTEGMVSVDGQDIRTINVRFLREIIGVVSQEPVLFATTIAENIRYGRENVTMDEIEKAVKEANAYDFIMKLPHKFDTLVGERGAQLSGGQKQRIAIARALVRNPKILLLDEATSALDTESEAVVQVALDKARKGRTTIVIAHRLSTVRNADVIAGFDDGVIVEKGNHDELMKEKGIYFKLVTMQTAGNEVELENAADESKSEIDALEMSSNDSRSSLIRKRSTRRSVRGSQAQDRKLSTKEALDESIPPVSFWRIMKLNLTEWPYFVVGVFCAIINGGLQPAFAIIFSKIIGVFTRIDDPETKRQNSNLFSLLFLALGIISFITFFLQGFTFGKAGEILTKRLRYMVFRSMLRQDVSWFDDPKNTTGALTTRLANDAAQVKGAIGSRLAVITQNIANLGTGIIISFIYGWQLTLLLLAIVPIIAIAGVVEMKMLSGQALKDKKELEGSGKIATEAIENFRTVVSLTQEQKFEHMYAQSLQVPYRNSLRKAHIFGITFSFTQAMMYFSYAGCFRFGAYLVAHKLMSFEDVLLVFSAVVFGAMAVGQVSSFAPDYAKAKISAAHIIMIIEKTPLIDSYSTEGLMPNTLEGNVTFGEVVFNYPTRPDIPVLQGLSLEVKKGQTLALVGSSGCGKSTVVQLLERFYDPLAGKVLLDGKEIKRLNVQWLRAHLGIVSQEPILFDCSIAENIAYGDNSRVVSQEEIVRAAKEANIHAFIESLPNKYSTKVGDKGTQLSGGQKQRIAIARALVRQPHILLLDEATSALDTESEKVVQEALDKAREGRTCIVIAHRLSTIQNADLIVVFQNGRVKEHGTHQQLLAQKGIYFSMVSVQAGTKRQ

## Cc1c(CF)cccc1C(c1cccc(NS(C)(=O)=O)c1)c1c[nH]cn1 (racemic) [compound 118]
α2AAR
  Ki: 10 to 50 nM
[1]
  efflux ratio at 2.5 h, 2 μM: 25.3
[2]
  EC50: 10 to 50 nM

## CONC(=O)c1cccc(C(c2c[nH]cn2)c2cccc(C)c2C)c1 (single isomer, unassigned) [1-B]
α2AAR
  Ki: 50 to 250 nM
[1]
  efflux ratio at 2.5 h, 2 μM: 51
[2]
  EC50: 10 to 50 nM

## Cc1cccc(C(c2cccc(C(N)=O)c2)c2c[nH]cn2)c1C (single isomer, unassigned) [5-B]
α2AAR
  Ki: 10 to 50 nM
[1]
  efflux ratio at 2.5 h, 2 μM: 33.2
[2]
  EC50: 10 to 50 nM

## Cc1cccc(C(c2c[nH]cn2)c2cccc(C(N)=O)c2F)c1C (single isomer, unassigned) [45-B]
α2AAR
  Ki: < 10 nM
[1]
  efflux ratio at 2.5 h, 2 μM: 14
[2]
  EC50: 10 to 50 nM

## Cc1cccc(C(c2cccc(C(=O)NC3CCOCC3)c2)c2c[nH]cn2)c1C (single isomer, unassigned) [121-B]
α2AAR
  Ki: < 10 nM
[1]
  efflux ratio at 2.5 h, 2 μM: 30.9
[2]
  EC50: < 10 nM

## Cc1cccc(C(c2c[nH]cn2)c2cccc(C(=O)NCC3CCOCC3)c2F)c1C (single isomer, unassigned) [124-B]
α2AAR
  Ki: < 10 nM
[1]
  efflux ratio at 2.5 h, 2 μM: 10.3
[2]
  EC50: 10 to 50 nM

## Cc1cccc(C(Cc2ccc(C(N)=O)c(F)c2)c2c[nH]cn2)c1C (single isomer, unassigned) [156-B]
α2AAR
  Ki: < 10 nM
[1]
  efflux ratio at 2.5 h, 2 μM: 2.86
[2]
  EC50: < 10 nM

## Brc1c(NC2=NCCN2)ccc2nccnc12 [Brimonidine, brimonidine, reference compound]
[1]
  efflux ratio at 2.5 h, 2 μM: 0.83

## C[C@H]1O[C@@H](O[C@H]2[C@@H](O)C[C@H](O[C@H]3[C@@H](O)C[C@H](O[C@H]4CC[C@@]5(C)[C@H](CC[C@@H]6[C@@H]5C[C@@H](O)[C@]5(C)[C@@H](C7=CC(=O)OC7)CC[C@]65O)C4)O[C@@H]3C)O[C@@H]2C)C[C@H](O)[C@@H]1O [Digoxin, reference compound]
[1]
  efflux ratio at 2.5 h, 2 μM: 13.7

## Cc1cccc(C(c2c[nH]cn2)c2cccc(OCCNS(C)(=O)=O)c2F)c1C (stereo not shown) [compound 55]
α2AAR
  Ki: 10 to 50 nM
[1]
  efflux ratio at 2.5 h, 2 μM: 26.4
[2]
  EC50: 10 to 50 nM

## Cc1cccc(C(c2c[nH]cn2)c2cccc(C(N)=O)n2)c1C (stereo not shown) [compound 56]
α2AAR
  Ki: 10 to 50 nM
[1]
  efflux ratio at 2.5 h, 2 μM: 11.5
[2]
  EC50: 10 to 50 nM

## Cc1cccc(C(c2cccc(C(=O)NCC3CCOCC3)c2)c2c[nH]cn2)c1C (stereo not shown) [compound 98]
[1]
  efflux ratio at 2.5 h, 2 μM: 82.6

## Cc1cccc(C(Cc2ccc(C(=O)NCC(=O)O)cc2)c2c[nH]cn2)c1C (stereo not shown) [compound 229]
α2AAR
  Ki: 50 to 250 nM
[2]
  EC50: 10 to 50 nM

## Cc1cccc(C(Cc2ccc3c(c2)CCC(=O)N3)c2c[nH]cn2)c1C (stereo not shown) [compound 230]
α2AAR
  Ki: < 10 nM
[2]
  EC50: 10 to 50 nM

## CNc1cccc(CC(c2c[nH]cn2)c2cccc(C)c2C)c1 (stereo not shown) [compound 231]
α2AAR
  Ki: 10 to 50 nM
[2]
  EC50: 10 to 50 nM

## Cc1cccc(C(Cc2ccc(S(C)(=O)=O)cc2)c2c[nH]cn2)c1C (stereo not shown) [compound 232]
α2AAR
  Ki: < 10 nM
[2]
  EC50: < 10 nM

## Cc1cccc(C(Cc2ccc(C(=O)NC3CCOCC3)c(O)c2)c2c[nH]cn2)c1C (stereo not shown) [compound 233]
α2AAR
  Ki: 10 to 50 nM
[2]
  EC50: 10 to 50 nM

## Cc1cccc(C(Cc2ccc(NC(=O)C3CCO3)cc2)c2c[nH]cn2)c1C (stereo not shown) [compound 234]
α2AAR
  Ki: < 10 nM
[2]
  EC50: 10 to 50 nM

## Cc1cccc(C(Cc2ccc3c(c2)OCCN3)c2c[nH]cn2)c1C (stereo not shown) [compound 235]
α2AAR
  Ki: < 10 nM
[2]
  EC50: 10 to 50 nM

## Cc1cccc(C(Cc2ccc(C(=O)NCCC(=O)O)cc2)c2c[nH]cn2)c1C (stereo not shown) [compound 236]
α2AAR
  Ki: 50 to 250 nM
[2]
  EC50: 10 to 50 nM

## CNC(=O)Nc1ccc(CC(c2c[nH]cn2)c2cccc(C)c2C)cc1 (stereo not shown) [compound 237]
α2AAR
  Ki: < 10 nM
[2]
  EC50: 10 to 50 nM

## Cc1cccc(C(Cc2ccc(OCC(=O)O)cc2)c2c[nH]cn2)c1C (stereo not shown) [compound 239]
α2AAR
  Ki: 50 to 250 nM
[2]
  EC50: 10 to 50 nM

## Cc1cccc(C(Cc2ccc(-c3nnn(C)n3)cc2)c2c[nH]cn2)c1C (stereo not shown) [compound 241]
α2AAR
  Ki: 10 to 50 nM
[2]
  EC50: 10 to 50 nM

## Cc1cccc(C(Cc2ccc(NC(=O)C3CCOCC3)nc2)c2c[nH]cn2)c1C (stereo not shown) [compound 242]
α2AAR
  Ki: 50 to 250 nM
[2]
  EC50: 10 to 50 nM

## Cc1cccc(C(Cc2ccc(N3CCN(C)C3=O)cc2)c2c[nH]cn2)c1C (stereo not shown) [compound 243]
α2AAR
  Ki: < 10 nM
[2]
  EC50: < 10 nM

## Cc1ccccc1C(Cc1ccc(C(N)=O)cc1)c1c[nH]cn1 (stereo not shown) [compound 244]
α2AAR
  Ki: 50 to 250 nM
[2]
  EC50: 50 to 250 nM

## Cc1cccc(C(Cc2ccc(NC(=O)N(C)C3CCOC3)cc2)c2c[nH]cn2)c1C (stereo not shown) [compound 245]
α2AAR
  Ki: < 10 nM
[2]
  EC50: < 10 nM

## Cc1cccc(C(Cc2ccc3c(c2)NCCN3)c2c[nH]cn2)c1C (stereo not shown) [compound 246]
α2AAR
  Ki: 10 to 50 nM
[2]
  EC50: 10 to 50 nM

## CC(=O)Nc1ccc(CC(c2c[nH]cn2)c2cccc(C)c2C)c(F)c1 (stereo not shown) [compound 247]
α2AAR
  Ki: < 10 nM
[2]
  EC50: 10 to 50 nM

## CC(=O)Nc1ccc(CC(c2c[nH]cn2)c2cccc(C)c2C)cn1 (stereo not shown) [compound 248]
α2AAR
  Ki: 50 to 250 nM
[2]
  EC50: 10 to 50 nM

## Cc1cccc(C(Cc2ccc(C(C)(C)C(=O)O)cc2)c2c[nH]cn2)c1C (stereo not shown) [compound 251]
α2AAR
  Ki: 50 to 250 nM
[2]
  EC50: 10 to 50 nM

## CONC(=O)c1cccc(CC(NC2=NCCO2)c2ccccc2OC)c1 (stereo not shown) [compound 503, 3-[2-(4,5-dihydro-1,3-oxazol-2-ylamino)-2-(2-methoxyphenyl)ethyl]-N-methoxybenzamide]
α2AAR
  Ki: < 10 nM
[2]
  EC50: 50 to 250 nM

## COc1ccccc1C(Cc1cccc(NS(C)(=O)=O)c1)N=C1NCCN1 (stereo not shown) [compound 505, N-{3-[2-(imidazolidin-2-ylideneamino)-2-(2-methoxyphenyl)ethyl]phenyl}methanesulfonamide]
α2AAR
  Ki: < 10 nM
[2]
  EC50: 50 to 250 nM

## CONC(=O)c1cccc(CC(NC2=NCCS2)c2cccc(Cl)c2)c1 (stereo not shown) [compound 506]
α2AAR
  Ki: < 10 nM
[2]
  EC50: 50 to 250 nM

## COc1ccccc1C(Cc1cccc(NS(C)(=O)=O)c1)NC1=NCCO1 (stereo not shown) [compound 509]
α2AAR
  Ki: < 10 nM
[2]
  EC50: 50 to 250 nM

## COc1ccccc1C(Cc1cccc(NS(=O)(=O)CC2CCOCC2)c1)NC1=NCCS1 (stereo not shown) [compound 515]
α2AAR
  Ki: < 10 nM
[2]
  EC50: 50 to 250 nM

## CS(=O)(=O)Nc1cccc(CC(Oc2c(Cl)cccc2Cl)C2=NCCN2)c1 (stereo not shown) [compound 516]
α2AAR
  Ki: 50 to 250 nM
[2]
  EC50: 50 to 250 nM

## CNS(=O)(=O)c1ccc(CC(Oc2c(Cl)cccc2Cl)C2=NCCN2)cc1 (stereo not shown) [compound 519]
α2AAR
  Ki: 10 to 50 nM
[2]
  EC50: 50 to 250 nM
